Key:
[1] = test system: Spontaneously Hypertensive Rats; experiment: Diuretic activity in spontaneously hypertensive rats (0-5 hour urine); type: in vivo, Male spontaneously hypertensive rats (SHR) of Okamoto strain; conditions: 100 mg/kg by gavage, sodium chloride loading, SHR
Protocol: The diuretic activity of the compounds of this invention was also determined according to the method of Chan, P. S. and Poorvin, D., "Sequential method for combined screening antihypertensive and diuretic agents in the same spontaneously hypertensive rat." Clinical and Experimental Hypertension, 1(6), 817-830 (1979). Male spontaneously hypertensive rats (SHR) of Okamoto strain, 16 weeks old, Taconic Farms Inc. were used in the test. These rats were kept on Purina laboratory chow and tap water ad libitum for 8 weeks before use. One male adult rat (about 300 g) was dosed by gavage with a test compound at 100 mg/kg together with 0.9 sodium chloride loading at […] at zero hour. The tese compound was suspended in 3% preboiled starch at 50 mg/ml. The rat was put in a metabolism cage. The 0-5 hour urine was collected and urinary sodium and potassium were determined using a Beckman Astra 4.

[2] = test system: plasma renin activity; experiment: Inhibition of evoked (drug-induced) increase of plasma renin activity (PRA) in conscious rats; type: in vivo; conditions: 25 mg/kg oral, 30 minutes prior to hydrochlorothiazide (10 mg/kg) + ACE inhibitor (1 mg/kg) provocative treatment; male Wistar rats; number of rats in parentheses
Protocol: Inhibition of evoked increase of plasma renin activity was determined by the following test.
Compounds were tested for their ability to prevent drug-induced elevation of plasma renin activity (PRA) in conscious, male Wistar rats (180-200 g, Charles River Lab.). PRA elevation was induced by a combined oral provocative treatment (C) of hydrochlorothiazide (10 mg/kg) and 1-(3-benzoyl-3-mercapto-2-methylpropionyl)-L-proline, acetate (U.S. Pat. No. 4,226,775) (one mg/kg), prepared by compounding in a mortar and pestle with preboiled 3% starch suspension. This treatment provided the daily maximum PRA. The daily minimum PRA was obtained from rats given oral starch suspension (S) alone. The magnitude of drug effect on PRA elevation was ascertained from rats pretreated orally with test agent (D), at the indicated doeses, 30 minutes prior to administration of provocative treatment (C). The test agent was also compounded in preboiled 3% starch suspension. The dose volumes for both pretreatment and provocative treatment were 2 ml/kg. One hour after provocative treatment the rats were sacrificed by decapitation and the first 3 seconds of blood collected in two chilled vacutainer tubes containing […] of 150 mg/ml tripotassium EDTA. […]
PRA is calculated as follows: PRA ([…])=PRA 37° C.-PRA 4° C.
Percent inhibition of PRA elevation is calculated as follows: [formula]

Compound | Potassium (urinary) [1] [MEQ/5 Hours] | Sodium (urinary) [1] [MEQ/5 Hours] | Volume (urine) [1] [mL] | Percent Inhibition of Plasma Renin Elevation, Average % Inhibition (No. of rats) [2] [%]
CCOC(=O)N=P(c1ccccc1)(c1ccccc1)c1ccccc1CN1CCCCC1 [[Diphenyl[2-(1-piperidinylmethyl)phenyl]phosphoranylidene]carbamic acid, ethyl ester] | 0.37 | 1.92 | 18.8 | –
CCOC(=O)N=P(c1ccccc1)(c1ccccc1)c1ccccc1CN1CCCC1 [[Diphenyl[2-(1-pyrrolidinylmethyl)phenyl]phosphoranylidene]carbamic acid, ethyl ester] | 0.56 | 1.36 | 12.0 | –
CCOC(=O)N=P(c1ccccc1)(c1ccccc1)c1ccccc1CN(C)C [[[2-[(Dimethylamino)methyl]phenyl]diphenylphosphoranylidene]carbamic acid, ethyl ester] | 0.67 | 1.47 | 15.5 | 16
COC(=O)N=P(c1ccccc1)(c1ccccc1)c1ccccc1CN(C)C [[[2-[(Dimethylamino)methyl]phenyl]diphenylphosphoranylidene]carbamic acid, methyl ester] | 0.83 | 1.62 | 19.5 | 77
CCCN(CCC)Cc1ccccc1P(=NC(=O)OCC)(c1ccccc1)c1ccccc1 [[[2-[(Dipropylamino)methyl]phenyl]diphenylphosphoranylidene]carbamic acid, ethyl ester] | 0.40 | 1.41 | 22.0 | –
CCOC(=O)N=P(c1ccccc1)(c1ccccc1)c1ccccc1CNC.Cl [[[2-[(Methylamino)methyl]phenyl]diphenylphosphoranylidene]carbamic acid, ethyl ester, monohydrochloride] | 0.51 | 1.66 | 17.5 | –
CCOC(=O)N=P(c1ccccc1)(c1ccccc1)c1ccccc1CN(CC)CC [[[[2-(Diethylamino)methyl]phenyl]diphenylphosphoranylidene]carbamic acid, ethyl ester] | 0.48 | 2.46 | 23.3 | –

— patent US4892885A, “Esters of (triarylphosphoranylidene)carbamic acid for effecting diuresis” (American Cyanamid Company, priority 1988, dated 1990)
